Each structure is given as a SMILES string. “And” between values parts separate entries of the source, which are not always exact repeats. Equal values may be shown once.

As a reminder, the IC50 is the concentration needed to halve the response being measured. A lower IC50 goes with higher potency. As a reminder, the Ki is a dissociation constant, usually derived from enzyme kinetics or from competition with a known ligand. Lower therefore signals a stronger hold on the target.

Assay [1] deals with T1, CSBP/p38 (Homo sapiens, UniProt Q16539). Kind of assay: CSBP/p38 Kinase Assay (32P transfer to EGFR-derived T669 peptide). The format is biochemical. The arrangement: made in house; host or cells: yeast. The following applies: for IC50: 0.17 mM ATP, 0.67 mM T669 peptide, 2-4 nM yeast-expressed activated p38, 25 min at 37° C.; for active as inhibitors of the CSBP kinase: statement in words, assay not given. The protocol: This assay measures the CSBP/p38-catalyzed transfer of ^32P from [a-^32P]ATP to threonine residue in an epidermal growth factor receptor (EGFR)-derived peptide (T669) with the following sequence: […] (SEQ ID 1) (residues 661-681). (See Gallagher et al., “Regulation of Stress Induced Cytokine Production by Pyridinyl Imidazoles: Inhibition of CSBP Kinase”, BioOrganic & Medicinal Chemistry, 1997, 5, 49-64).
T1 sequence (Q16539 whole entry, the tested form may be a part): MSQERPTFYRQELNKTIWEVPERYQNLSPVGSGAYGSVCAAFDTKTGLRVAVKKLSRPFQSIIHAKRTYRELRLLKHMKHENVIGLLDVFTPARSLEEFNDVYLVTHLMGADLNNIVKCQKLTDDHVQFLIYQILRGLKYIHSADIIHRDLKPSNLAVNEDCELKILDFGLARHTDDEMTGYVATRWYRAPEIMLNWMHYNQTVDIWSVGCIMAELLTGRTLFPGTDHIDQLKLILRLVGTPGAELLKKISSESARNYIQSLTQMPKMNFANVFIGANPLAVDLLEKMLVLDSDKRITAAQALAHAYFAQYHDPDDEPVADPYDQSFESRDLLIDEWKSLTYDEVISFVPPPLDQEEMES
Reactions are carried in round bottom 96 well plate (from Corning) in a […] volume. […] Filters are washed with 75 mM phosphoric acids, and incorporated 32P was quantified using beta scintillation counter. Under these conditions, the specific activity of p38 will be determined and is generally 400-450 pmol/pmol enzyme, and the activity being linear for up to 2 hours of incubation. The kinase activity values are obtained after subtracting values generated in the absence of substrate which were 10-15% of total values.

The target of assay [2] is T1, CSBP/p38. Kind of assay: Fluorescence Anisotropy Kinase Binding Assay. As to conditions: pKi is the negative log of the Ki; p38 enzyme 12 nM, fluorescent ligand 5 nM. The procedure: The concentration of kinase enzyme should preferably be ≧1×Kf. The concentration of fluorescent ligand required will depend on the instrumentation used, and the fluorescent and physicochemical properties. The concentration used must be lower than the concentration of kinase enzyme, and preferably less than half the kinase enzyme concentration.
All components dissolved in Buffer of final composition 62.5 mM HEPES, pH 7.5, 1.25 mM CHAPS, 1.25 mM […], 12.5 mM MgCl2 3.3% DMSO.
p38 Enzyme concentration: 12 nM
Fluorescent ligand concentration: 5 nM
Test compound concentration: 0.1 nM-100 uM
Components incubated in 30 ul final volume in NUNC 384 well black microtitre plate until equilibrium reached (5-30 mins)
Fluorescence anisotropy read in LJL Acquest.
Definitions: Ki=dissociation constant for inhibitor binding
• Kf=dissociation constant for fluorescent ligand binding The fluorescent ligand is the following compound:
[drawing 13] which is derived from 5-[2-(4-aminomethylphenyl)-5-pyridin-4-yl-1H-imidazol-4-yl]-2-chlorophenol and rhodamine green.

As for `Cn1c(=O)ccc2c(-c3ccccc3)nccc21` [Example 11, 1-Methyl-5-phenyl-1H-[1,6]naphthyridin-2-one], in assay [1], the IC50 stood at 5000 nM and the “active as inhibitors of the CSBP kinase” value was “active”. Take `O=c1ccc2c(-c3ccccc3)nccc2n1Cc1ccccc1` [Example 9, 1-Benzyl-5-phenyl-1H-[1,6]naphthyridin-2-one]: in assay [1], the half-inhibitory concentration (IC50) was found to be 60 nM. Turning to `COc1cc2c(ccc(=O)n2-c2ccccc2Cl)c(-c2ccccc2Cl)c1Br` (single isomer, unassigned) [Example 17, 6-bromo-1,5-bis(2-chlorophenyl)-7-(methyloxy)-2(1H)-quinolinone], the Ki in assay [2] was 20 nM and 12.6 nM. As to `O=c1ccc2c(-c3ccccc3)nccc2[nH]1` [Example 12, 5-Phenyl-1H-[1,6]naphthyridin-2-one], in assay [1], the 50% inhibitory concentration (IC50) is 13400 nM and the “active as inhibitors of the CSBP kinase” value was “active”. For the compound `O=c1ccc2c(-c3ccccc3)nccc2n1-c1ccccc1` [Example 10, 1,5-Diphenyl-1H-[1,6]naphthyridin-2-one], inhibition in assay [1] was half-maximal at 200 nM (IC50).
